According to patent publication US6242481A, “Methods for the inhibition of angiogenesis with arglabin” (priority 1999, dated 2001):
Values after ≈ are worked out from the molar mass of the structure shown.

How the values were obtained:
cells [1] = settings: cited from earlier work
[2] = system: Bovine capillary endothelial (BCE) cells; assay: inhibition of bovine capillary endothelial cell proliferation (BCE), compared to NIH3T3 fibroblasts; format: cell-based; settings: for less active (inhibition of endothelial cell proliferation): relative to cytochalasin E
Protocol: (§1) Bovine capillary endothelial (BCE) cells and Swiss mouse embryo fibroblast cells (NIH3T3) were isolated as previously described (Folkman, , et al., Proc. Nat. Acad. Sci USA., 76:5217-21(1979)) and maintained in DMEM supplemented with 10% heat-inactivated bovine calf serum (BCS), antibiotics, and 3 ng/ml recombinant human bFGF (Scios Nova, Mountainview,Calif.). Monolayers of the cells growing in 6-well plates were dispersed in a 0.05% trypsin solution. The cells were re-suspended with DMEM containing 10% BCS. Approximately 12,500 cells in 0.5 ml were added to each well of gelatinized 24-well tissue culture plates and incubated at 37° C. (in 10% CO2) for 24 hours. The medium was replaced with […] of fresh DMEM containing 5% BCS. Samples of cytochalasin E, cytochalasin A, and cytochalasin H were added to each well in triplicate. After 30 minutes of incubation, bFGF was added to a final concentration of 1 ng/ml. After 72 hours of incubation, cells were trypsinized, re-suspended in Hematall (Fisher Scientific, Pittsburg, Pa.) and counted with a Coulter counter.
FIG. 2 is a graph showing the inhibition of bovine capillary endothelial cell proliferation (BCE) (squares) compared to Swiss mouse embryo fibroblast cells (NIH3T3). […] The ordinate measures drug concentration in grams per milliliter.

[3] = system: tumor growth and metastases; settings: cited from earlier work
[4] = system: vascular endothelial cell; settings: cited from earlier work
tumors cells = settings: cited from earlier work
[5] = system: Bovine capillary endothelial (BCE) cells; assay: inhibition of bovine capillary endothelial cell proliferation (BCE), cytochalasin E vs epoxycytochalasin J; format: cell-based; settings: compared with cytochalasin E; FIG. 3
Protocol: as §1, with “(BCE)” for “(BCE) cells and Swiss mouse embryo fibroblast cells (NIH3T3)”, “76:5217-21 (1979))” for “76:5217-21(1979))”, “Mountainview, Calif.).” for “Mountainview,Calif.).”, “E” for “E, cytochalasin A,”, “epoxycytochalasin J” for “cytochalasin H”
The ordinate measures drug concentration in grams per milliliter.

[6] = system: tumor-induced angiogenesis in mouse dermis; settings: cited from earlier work
[7] = format: in vivo; settings: mice; Table 1
Text: (§2) The neovascularization experiment described in Example 2 was repeated using the corneal micropockets in mice. The compounds tested were cytochalasin E, astaphiatin, arglabin, epoxycytochalasin-H, ozonolyzed cytochalasin-E, and precursor cytochalasin-E. The results of these compound's ability to inhibit angiogenesis are shown in Table 1.

[8] = system: corneal neovascularization (corneal micropockets); assay: neovascularization experiment using corneal micropockets in mice; format: in vivo; settings: mouse corneal micropockets; Table 1
Protocol: (§3) Pellets for implantation into rabbit corneas were made by mixing 110 μl of saline containing 12 μg of recombinant bFGF (Takeda Pharmaceuticals-Japan) with 40 mg of sucralfate (Bukh Meditec-Denmark); this suspension was added to 80 μl of 12% hydron (Interferon Sciences) in ethanol. 10 μl aliquots of this mixture was then pipetted onto teflon pegs and allowed to dry producing approximately 17 pellets. A pellet was implanted into corneal micropockets of each eye of an anesthetized female New Zealand white rabbit, 2 mm from the limbus followed by topical application of erythromycin ointment onto the surface of the cornea. The animals were fed daily from 2 days post-implantation by gastric lavage with cytochalasin E or the aldehyde methyl ester derivative of cytochalasin E suspended in 0.5% carboxymethyl cellulose or 0.5% carboxymethyl cellulose alone. The animals were examined with a slit lamp every other day in a masked manner by the same corneal specialist. The area of corneal neovascularization was determined by measuring with a reticule the vessel length (L) from the limbus and the number of clock hours (C) of limbus involved. A formula was used to determine the area of a circular band segment: C/12*3.1416 [r^2 -(r-L)^2 ] where r=6 mm the measured radius of the rabbit cornea.
as §2

cells [9] = settings: cited from earlier work; remark: listed apart in the source
Lewis lung carcinoma [10] = assay: Lewis lung carcinoma tumor growth (Example 5); format: in vivo, mice (C57BI6/J); settings: 2 mg/kg/day
Protocol: (§4) Syngeneic C57BI6/J six-week-old male mice were injected (subcutaneous dorsum) with 1×10^6 tumor cells. Visible tumors first appeared after 3-4 days. When tumors were approximately 1500 mm^3 in size, mice were randomized into two groups. The primary tumor was completely excised in the first group and left intact in the second group after a sham operation. Although tumors from 500 mm^3 to 3000 mm^3 inhibited growth of metastases, 1500 mm^3 was the largest primary tumor that could be safely resected with high survival and no local recurrence.
This experimental model gave reproducible data and the experiment described is reproducible. This tumor is labeled "Lewis lung carcinoma--low metastatic" (LLC-Low).

Lewis lung carcinoma [11] = assay: Lewis lung experiment, inhibition of tumor growth (Example 6); format: in vivo, mice (C57BI6/J); settings: 2.0 mg/kg qd (printed 'od' for methanolyzed compound)
Protocol: as §4
The Lewis lung experiment of Example 5 was repeated using cytochalasin E and methanolyzed cytochalasin E. The results of this experiment are presented in the table below.

[12] = system: basic fibroblast growth factor (bFGF) driven corneal neovascularization; assay: rabbit cornea assay, bFGF driven corneal neovascularization; format: in vivo, rabbit (New Zealand white); settings: 2 mg/kg/day, text says subcutaneously administered (method: gastric lavage)
Protocol: as §3

For `C=C1C(C)C2C(Cc3ccccc3)NC(=O)C23C(OC(C)=O)/C=C/C(C)(O)CC(C)C/C=C/C3C1O` (stereo not drawn) [cytochalasin H], the disaggregation of cells (cells [1]) is listed as “produces disaggregation of cells” and the “less active (inhibition of endothelial cell proliferation)” value [2] is listed as 1000 fold.

For `C=C1C(C)C2C(Cc3ccccc3)NC(=O)C23OC(=O)/C=C/C(=O)CCCC(C)C/C=C/C3C1O` (stereo not drawn) [cytochalasin A], the “less active (inhibition of endothelial cell proliferation)” value [2] was 1000 fold.

In the case of `CO[C@@H]1[C@H](OC(=O)NC(=O)CCl)CC[C@]2(CO2)[C@H]1[C@@]1(C)O[C@@H]1CC=C(C)C` [AGM-1470], the “inhibition of tumor growth and metastases in vivo” value [3] is listed as “inhibits tumor growth and metastases in vivo”, the “activity in inhibiting tumor cell proliferation in vitro” value ([4]; compared with inhibition in vivo) is listed as “much less active” and the “half-maximal inhibition of vascular endothelial cell proliferation at lower concentration than tumor cell proliferation” value ([4]; endothelial vs tumor cell proliferation) is listed as 4 logs.

For “bFGF: basic fibroblast growth factor (bFGF)”, the “mitogen for the tumor cells in vitro” value (tumors cells) is listed as “not a mitogen”.

With `C[C@H]1C/C=C/[C@H]2[C@@H]3O[C@]3(C)[C@@H](C)[C@@H]3[C@H](Cc4ccccc4)NC(=O)[C@]32[C@H](O)/C=C/[C@](C)(O)C1` [epoxycytochalasin J] the “effectiveness as inhibitor of bovine capillary endothelial cell proliferation” value [5] was “even more effective inhibitor”.

In the case of interferon alpha, the “inhibition of tumor-induced angiogenesis” value [6] is given as “inhibit tumor-induced angiogenesis”.

With `CC(=O)O[C@@H]1/C=C/[C@](C)(O)C[C@@H](C)C/C=C/[C@H]2[C@@H]3O[C@]3(C)[C@@H](C)[C@H]3[C@H](Cc4ccccc4)NC(=O)[C@@]312` [Epoxycytochalasin-H] the “% Weight Loss” value [7] was 2.46% and the “% Inhibition (ability to inhibit angiogenesis)” value (from here on “% Inhibition”) [8] was 27.35%.

For `C=C1C(C)C2C(Cc3ccccc3)NC(=O)C23OC(=O)/C=C/C(O)CCCC(C)C/C=C/C3C1O` (single isomer, unassigned) [cytochalasin B], the “changes in cell structure” value (cells [9]) is given as “a number of morphological changes in cell structure”.

With `CC1C/C=C/C2C3OC3(C)C(C)C3C(Cc4ccccc4)NC(=O)C23OC(=O)O/C=C/C(C)(O)C1=O` [cytochalasin E, (6S,7S,16R,18R)-6,7-epoxy-18-hydroxy-16-methyl-10-phenyl-21 ,23-dioxa-[13]cytochalasa-13(E), 19(E)-diene-1,17,22-trione] the “% Weight Loss” value [7] was 0.00%, the “% Inhibition” value [8] was 45.00% and the inhibited tumor growth (Lewis lung carcinoma [10]) was 74%. The “Inhibition of Tumor Growth, T/C” value (Lewis lung carcinoma [11]) was 0.28, the “inhibition of bFGF driven corneal neovascularization” value [12] was 50% and the IC50 ([2]; Bos taurus, Endothelial cell, bFGF 1 ng/ml, 72 hours) was 0.002 ng/mL (≈ 0.00404 nM).

With `CC1C2C(Cc3ccccc3)NC(=O)C2(O)C(CO)C2OC12C` (stereo not drawn) [Ozonolyzed Cytochalasin-E] the “% Weight Loss” value [7] was 4.00% and the “% Inhibition” value [8] was 20.00%.

In the case of `C=C1C(=O)O[C@@H]2[C@H]3C(C)=CC[C@@]34O[C@@]4(C)CC[C@@H]12` [Arglabin], the “% Weight Loss” value [7] is reported as 2.69% and the “% Inhibition” value [8] is reported as 22.72%.

In the case of `C=C1C(=O)OC2C1CCC(=C)C1CC3OC3(C)C12` (stereo not drawn) [Astaphiatin], the “% Weight Loss” value [7] is reported as 6.92% and the “% Inhibition” value [8] is reported as 33.56%.
